Results on 24 compounds are retold here after US9617258B2, “Pyrrolo[2,3-d]pyrimidinyl, pyrrolo[2,3-b]pyrazinyl and pyrrolo[2,3-d]pyridinyl acrylamides” (Pfizer Inc., priority 2013, dated 2017).

The target in data set [1] is T1, JAK3 enzyme (Homo sapiens (Human), UniProt P52333). Briefly: JAK Caliper enzyme assay at 1 mM ATP. The data set is classed as biochemical. The protocol:
(§1) JAK Caliper Enzyme Assay at 4 μM or 1 mM ATP
(§2) Test article was solubilized in dimethyl sulfoxide (DMSO) to a stock concentration of 30 mM. An 11-point half log dilution series was created in DMSO with a top concentration of 600 μM. […] The compound plates were diluted 1 to 60 resulting in a top final assay compound concentration of 10 μM and a 2% DMSO concentration.
(§3) Test article and assay controls were added to a 384-well plate. Reaction mixtures contained 20 mM HEPES, pH 7.4, 10 mM magnesium chloride, 0.01% bovine serum albumin (BSA), 0.0005% Tween 20, 4 μM or 1 mM ATP and 1 μM peptide substrate. […] The assays were initiated by the addition 1 nM JAK3 enzyme and were incubated at room temperature 75 minutes for JAK3. Enzyme concentrations and incubation times were optimized for each new enzyme preps and were modified slightly over time to ensure 20%-30% phosphorylation. The assays were stopped with a final concentration of 10 mM EDTA, 0.1% Coating Reagent and 100 mM HEPES, pH=7.4. The assay plates were placed on a Caliper Life Science Lab Chip 3000 (LC3000) instrument, and each well was sampled using appropriate separation conditions to measure the unphosphorylated and phosphorylated peptide.

Data set [2] addresses T1, JAK3 enzyme. Briefly: JAK Caliper enzyme assay at 4 μM ATP. The data set is classed as biochemical. The procedure: as §1, §2, §3
Data set [3] is described as follows: Stability of JAK3 covalent inhibitors in human whole blood.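 Further: parent compound remaining over incubation time quantified by LC-MS/MS as peak area ratio against an internal standard, using pooled K2-EDTA blood.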 The data set is classed as in vitro ADME. To be noted: both sexes, 37° C., read-out: Human blood stability t1/2.

The IC50 is the midpoint of a concentration-inhibition curve.

Structures are written as SMILES. Like-named read-outs stand apart in the source and are kept apart here.

T1 sequence (P52333 whole entry, species assumed): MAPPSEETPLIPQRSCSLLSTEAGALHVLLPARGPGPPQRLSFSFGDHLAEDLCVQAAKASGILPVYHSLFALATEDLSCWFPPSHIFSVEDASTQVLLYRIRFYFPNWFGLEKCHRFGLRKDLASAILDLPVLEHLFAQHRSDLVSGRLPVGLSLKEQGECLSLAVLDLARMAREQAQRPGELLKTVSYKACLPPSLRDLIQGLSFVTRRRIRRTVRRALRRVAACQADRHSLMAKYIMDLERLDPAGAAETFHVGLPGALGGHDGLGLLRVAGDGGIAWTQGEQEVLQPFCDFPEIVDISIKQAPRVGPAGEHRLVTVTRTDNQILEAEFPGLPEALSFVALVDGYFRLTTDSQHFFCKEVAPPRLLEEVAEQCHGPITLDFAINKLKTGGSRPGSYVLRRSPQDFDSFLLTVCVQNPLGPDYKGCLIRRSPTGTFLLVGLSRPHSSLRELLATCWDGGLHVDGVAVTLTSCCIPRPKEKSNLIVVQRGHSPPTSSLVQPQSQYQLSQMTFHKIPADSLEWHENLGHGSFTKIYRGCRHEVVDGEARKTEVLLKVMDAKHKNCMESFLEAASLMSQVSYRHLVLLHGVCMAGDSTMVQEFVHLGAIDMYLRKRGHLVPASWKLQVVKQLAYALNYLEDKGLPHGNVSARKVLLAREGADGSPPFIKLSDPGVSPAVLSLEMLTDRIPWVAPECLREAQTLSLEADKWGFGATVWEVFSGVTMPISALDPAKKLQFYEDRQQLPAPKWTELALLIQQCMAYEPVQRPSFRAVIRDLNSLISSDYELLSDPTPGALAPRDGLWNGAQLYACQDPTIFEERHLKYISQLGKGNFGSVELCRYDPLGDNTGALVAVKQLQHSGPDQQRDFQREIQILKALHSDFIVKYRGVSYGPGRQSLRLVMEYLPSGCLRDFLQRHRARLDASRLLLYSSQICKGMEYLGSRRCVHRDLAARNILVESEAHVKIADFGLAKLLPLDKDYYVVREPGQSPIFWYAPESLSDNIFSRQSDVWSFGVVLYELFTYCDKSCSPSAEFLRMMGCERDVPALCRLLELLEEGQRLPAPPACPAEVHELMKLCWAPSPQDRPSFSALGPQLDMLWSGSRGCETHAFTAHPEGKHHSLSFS

With `C=CC(=O)N1CC[C@H](O)[C@@H](Nc2ncnc3[nH]ccc23)C1` (racemic) [Example 113, rac-1-[(3S,4S)-4-Hydroxy-3-(7H-pyrrolo[2,3-d]pyrimidin-4-ylamino)piperidin-1-yl]prop-2-en-1-one], the values for the IC50 in data set [1] and in data set [2] were 8.48 µM and 0.0424 µM, respectively. As for `C=CC(=O)N1CCC[C@H](Nc2ncnc3[nH]ccc23)[C@H]1C` (racemic) [Example 121, rac-1-((2R,3S)-3-((7H-Pyrrolo[2,3-d]pyrimidin-4-yl)amino)-2-methylpiperidin-1-yl)prop-2-en-1-one], the half-maximal inhibitory concentration (IC50) is > 10 µM in data set [1] and 0.648 µM in data set [2]. In addition, the half-life at 1 μM in data set [3] (whole blood) was > 6 h.

Consider `C/C=C/C(=O)N1CC[C@@H](O)[C@@H](Nc2ncnc3[nH]ccc23)C1` (racemic) [Example 160, rac-(2E)-1-[(3S,4R)-4-Hydroxy-3-(7H-pyrrolo[2,3-d]pyrimidin-4-ylamino)piperidin-1-yl]but-2-en-1-one], for which the IC50 in data set [2] is > 10 µM. Consider `C/C=C/C(=O)N1CC[C@@H]2CCN(c3ncnc4[nH]ccc34)[C@@H]2C1` [Example 84, (2E)-1-[(3aS,7aS)-1-(7H-pyrrolo[2,3-d]pyrimidin-4-yl)octahydro-6H-pyrrolo[2,3-c]pyridin-6-yl]but-2-en-1-one], for which the half-inhibitory concentration (IC50) is > 10 µM in data set [1] (read-out: JAK3 (1 mM ATP) IC50) and 0.727 µM in data set [2] (read-out: JAK3 (4 μM ATP) IC50). Regarding `O=C(C1=CCC1)N1CC[C@@H]2CCN(c3ncnc4[nH]ccc34)[C@@H]2C1` [Example 86, cyclobut-1-en-1-yl[(3aS,7aS)-1-(7H-pyrrolo[2,3-d]pyrimidin-4-yl)octahydro-6H-pyrrolo[2,3-c]pyridin-6-yl]methanone], the figures for the IC50 in data set [1] (read-out: JAK3 (1 mM ATP) IC50) and in data set [2] (read-out: JAK3 (4 μM ATP) IC50) were > 10 µM and 0.149 µM, respectively. Further, in data set [3] (whole blood), the half-life at 1 μM was > 6 h. With `C=CC(=O)c1c[nH]c2ncnc(N[C@H]3CN(C(=O)C=C)CC[C@H]3F)c12` [Example 120, 1-(4-{[(3S,4R)-1-Acryloyl-4-fluoropiperidin-3-yl]amino}-7H-pyrrolo[2,3-d]pyrimidin-5-yl)prop-2-en-1-one], the IC50 in data set [1] (read-out: JAK3 (1 mM ATP) IC50) is > 10 µM. Turning to `C=CC(=O)N1C[C@H](Nc2ncnc3[nH]ccc23)CC[C@H]1CC` [Example 124, 1-[(2R,5R)-2-Ethyl-5-(7H-pyrrolo[2,3-d]pyrimidin-4-ylamino)piperidin-1-yl]prop-2-en-1-one], the values for the half-inhibitory concentration (IC50) in data set [1] (read-out: JAK3 (1 mM ATP) IC50) and in data set [2] (read-out: JAK3 (4 μM ATP) IC50) were > 10 µM and 0.265 µM, respectively.

As for `C=CC(=O)N1C[C@@H](Nc2ncnc3[nH]ccc23)[C@@H]2CC[C@H]1C2` [Example 126, 1-((1S,4S,5R)-4-(7H-pyrrolo[2,3-d]pyrimidin-4-ylamino)-2-azabicyclo[3.2.1]octan-2-yl)prop-2-en-1-one], the figures for the half-inhibitory concentration (IC50) in data set [1] and in data set [2] (read-out: JAK3 (4 μM ATP) IC50) were > 10 µM and 0.603 µM, respectively. On to `C=CC(=O)N1C[C@H](Nc2ncnc3[nH]ccc23)[C@H]2CC[C@@H]1C2` [Example 127, 1-((1R,4R,5S)-4-(7H-pyrrolo[2,3-d]pyrimidin-4-ylamino)-2-azabicyclo[3.2.1]octan-2-yl)prop-2-en-1-one], for which the IC50 is > 10 µM in data set [1] (read-out: JAK3 (1 mM ATP) IC50) and 0.19 µM in data set [2] (read-out: JAK3 (4 μM ATP) IC50).

For `C=CC(=O)N1CCC(Nc2cnc3[nH]cc(C(=O)N[C@@H]4C[C@H]4C(F)(F)F)c3n2)CC1` [Example 233, 2-[(1-acryloylpiperidin-4-yl)amino]-N-[(1R,2R)-2-(trifluoromethyl)cyclopropyl]-5H-pyrrolo[2,3-b]pyrazine-7-carboxamide], the values for the concentration for half-maximal inhibition (IC50) in data set [1] (read-out: JAK3 (1 mM ATP) IC50) and in data set [2] (read-out: JAK3 (4 μM ATP) IC50) were 0.0206 µM and 0.0002 µM, respectively. In the case of `C=CC(=O)N1C[C@@H]2C[C@H]1CN2c1cnc2[nH]cc(C(=O)NC(C)C)c2n1` [Example 300, 2-[(1S,4S)-5-acryloyl-2,5-diazabicyclo[2.2.1]hept-2-yl]-N-(propan-2-yl)-5H-pyrrolo[2,3-b]pyrazine-7-carboxamide], the values for the IC50 in data set [1] and in data set [2] were 0.0844 µM and 0.0009 µM, respectively. In data set [3] (whole blood (fresh, pooled, K2-EDTA)), the half-life at 1 μM is 1.95 h.

Regarding `C=CC(=O)N1CC[C@@H](Nc2cnc3[nH]cc(C(=O)NC(C)C)c3n2)[C@@H](OC)C1` [Example 302, 2-{[(3S,4R)-1-acryloyl-3-methoxypiperidin-4-yl]amino}-N-(propan-2-yl)-5H-pyrrolo[2,3-b]pyrazine-7-carboxamide], the half-life at 1 μM in data set [3] (whole blood) is > 6 h.

Turning to `C=CC(=O)N1CCN(c2cnc3[nH]cc(C(=O)NC(C)C)c3n2)C[C@@H]1CC(C)C` [Example 303, 2-[(3S)-4-acryloyl-3-(2-methylpropyl)piperazin-1-yl]-N-(propan-2-yl)-5H -pyrrolo[2,3-b]pyrazine-7-carboxamide], in data set [3] (whole blood), the half-life at 1 μM was 5.68 h. On the same count and under the same terms, in the case of `C=CC(=O)N1CC[C@@H](Nc2cnc3[nH]cc(C(=O)NC(C)C)c3n2)[C@H](OC)C1` [Example 305, 2-{[(3R,4R)-1-acryloyl-3-methoxypiperidin-4-yl]amino}-N-(propan-2-yl)-5H-pyrrolo[2,3-b]pyrazine-7-carboxamide] it was 5.95 h; in that of `C=CC(=O)N1CCN(c2cnc3[nH]cc(C(=O)NC(C)C)c3n2)[C@H](C)C1` [Example 307, 2-[(2R)-4-acryloyl-2-methylpiperazin-1-yl]-N-(propan-2-yl)-5H-pyrrolo[2,3-b]pyrazine-7-carboxamide], 2.03 h. `C=CC(=O)N1CC[C@H](Nc2cnc3[nH]cc(C(=O)NC(C)C)c3n2)[C@H](OC)C1` [Example 317, 2-{[(3R,4S)-1-acryloyl-3-methoxypiperidin-4-yl]amino}-N-(propan-2-yl)-5H-pyrrolo[2,3-b]pyrazine-7-carboxamide]: the half-life at 1 μM in data set [3] (whole blood) is > 6 h. For `C=CC(=O)N1CCC(C)(Nc2cnc3[nH]cc(C(=O)NC(C)C)c3n2)CC1` [Example 318, 2-[(1-acryloyl-4-methylpiperidin-4-yl)amino]-N-(propan-2-yl)-5H-pyrrolo[2,3-b]pyrazine-7-carboxamide], the half-life at 1 μM in data set [3] (whole blood) came out at 5.87 h. Same read-out and setting: with `C=CC(=O)N1CC[C@@H](Nc2cnc3[nH]cc(C(=O)NC(C)C)c3n2)[C@@H](F)C1` [Example 320, 2-{[(3S,4R)-1-acryloyl-3-fluoropiperidin-4-yl]amino}-N-(propan-2-yl)-5H-pyrrolo[2,3-b]pyrazine-7-carboxamide] the figure was 3.17 h. Consider `C=CC(=O)N1CC[C@@H](Nc2cnc3[nH]ccc3n2)C1` [Example 335, (R)-1-(3-((5H-Pyrrolo[2,3-b]pyrazin-2-yl)amino)pyrrolidin-1-yl)prop-2-en-1-one], for which the IC50 in data set [1] (read-out: JAK3 (1 mM ATP) IC50) is > 10 µM.

Take `C=CC(=O)N1CC(Nc2cnc3[nH]ccc3n2)C1` [Example 337, 1-(3-((5H-Pyrrolo[2,3-b]pyrazin-2-yl)amino)azetidin-1-yl)prop-2-en-1-one]: the half-life at 1 μM in data set [3] (whole blood) was 1.35 h. The same measure, in the same setting: with `C=CC(=O)N1CCC(Oc2cnc3[nH]cc(C(=O)NC(C)(C)C)c3n2)CC1` [Example 338, 2-((1-Acryloylpiperidin-4-yl)oxy)-N-(tert-butyl)-5H-pyrrolo[2,3-b]pyrazine-7-carboxamide] the figure was 5.47 h; with `C=CC(=O)N1CCC(Oc2cnc3[nH]cc(C(=O)NC(C)C)c3n2)CC1` [Example 339, 2-((1-Acryloylpiperidin-4-yl)oxy)-N-isopropyl-5H-pyrrolo[2,3-b]pyrazine-7-carboxamide], 3.78 h; with `C=CC(=O)N1CC[C@@H](Nc2cnc3[nH]cc(C(=O)NC(C)(C)C)c3n2)C[C@H]1C` [Example 342, 2-(((2R,4R)-1-Acryloyl-2-methylpiperidin-4-yl)amino)-N-(tert-butyl)-5H-pyrrolo[2,3-b]pyrazine-7-carboxamide], > 6 h. On the same count and under the same terms, in the case of `C#CCNC(=O)c1c[nH]c2ncc(NC3CCN(C(=O)C=C)CC3)nc12` [Example 343, 2-((1-Acryloylpiperidin-4-yl)amino)-N-(prop-2-yn-1-yl)-5H-pyrrolo[2,3-b]pyrazine-7-carboxamide] it was > 5.85 h.
